The target of one assay is T1, CK2A2 (Homo sapiens, UniProt P19784).
T1 construct: purchased Eurofins
The assay is described as follows: Radiometric kinase assay (Eurofins), CK2A2. Format: biochemical. The settings on record: read-out: CK2A2 RAD IC50. The text has this:
(§1) • ^1Radiometric kinase assay from Eurofins. Performed in astrocytes with a Promega Lumit IL-6 kit.

The target of the next assay is T2, CK2A1 (Homo sapiens, UniProt P68400).
T2 construct: purchased Eurofins
The assay can be described thus: Radiometric kinase assay (Eurofins), CK2A1. Format: biochemical. The settings on record: read-out: CK2A1 RAD IC50.
Text: FIGS. 4A-4F characterize flavones for in vitro and in-cell CK2 inhibition. […] Representative of two independent experiments. […] Nonlinear fit was used to calculate IC50. […] Nonlinear fit was used to calculate IC50. […] Nonlinear fit was used to calculate IC50. […] Normalized to DMSO, data are representative of three independent experiments.
as §1

The structures appear in SMILES notation. Where two headings read alike, the source gives them in different places.

T1 sequence (P19784 whole entry): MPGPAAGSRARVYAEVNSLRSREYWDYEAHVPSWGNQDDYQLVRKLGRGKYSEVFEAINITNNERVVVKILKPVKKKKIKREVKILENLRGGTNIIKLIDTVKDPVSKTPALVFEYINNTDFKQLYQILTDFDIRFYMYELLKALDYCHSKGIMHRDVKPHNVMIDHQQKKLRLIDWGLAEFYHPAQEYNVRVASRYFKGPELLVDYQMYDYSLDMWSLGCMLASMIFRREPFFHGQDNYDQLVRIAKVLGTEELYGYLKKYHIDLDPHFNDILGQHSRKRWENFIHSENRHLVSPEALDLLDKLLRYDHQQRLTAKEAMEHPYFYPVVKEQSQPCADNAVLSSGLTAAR
T2 sequence (P68400 whole entry): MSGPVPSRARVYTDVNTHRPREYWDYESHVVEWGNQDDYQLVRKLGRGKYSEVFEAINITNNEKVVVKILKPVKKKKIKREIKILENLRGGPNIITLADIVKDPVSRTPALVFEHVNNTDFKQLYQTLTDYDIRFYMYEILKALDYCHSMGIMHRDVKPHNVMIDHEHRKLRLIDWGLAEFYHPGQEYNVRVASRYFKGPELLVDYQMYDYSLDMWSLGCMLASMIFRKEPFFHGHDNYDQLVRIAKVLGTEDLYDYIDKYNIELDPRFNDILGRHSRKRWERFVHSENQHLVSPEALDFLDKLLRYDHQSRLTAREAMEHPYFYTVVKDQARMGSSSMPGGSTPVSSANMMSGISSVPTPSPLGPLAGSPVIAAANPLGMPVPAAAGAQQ

The term IC50 denotes the concentration needed to halve the response being measured. Take `O=c1[nH]c(-c2ccc(O)c(Cl)n2)nc2c(Cl)cc(Cl)cc12` [Compound 963A]: the half-maximal inhibitory concentration (IC50) on CK2A2 (Table 9) was determined as 62 nM; at CK2A1 (Table 9) it was 176 nM.
For `O=c1[nH]c(-c2ccc(O)c(Cl)n2)nc2c(Br)cccc12` [Compound 964A], in that order: 137 nM and 155 nM.
Regarding `O=c1cc(-c2ccc(O)c(O)c2)oc2c(Br)cc(Br)cc12` [Compound 1004A], the IC50 on CK2A2 (Table 5) is 803 nM; at CK2A1 (Table 5) it was 845 nM.
Consider `O=c1[nH]c(-c2cc(Br)c(O)cn2)nc2c(Br)cc(Br)cc12` [Compound 1005A], for which the results for the IC50 at CK2A2 (Table 9) and at CK2A1 (Table 9) were 53 nM and 94 nM, respectively.
The corresponding values for `O=c1[nH]c(-c2cc(Br)c(O)cn2)nc2c(Cl)cc(Cl)cc12` [Compound 1006A] are 85 nM and 182 nM.
The corresponding values for `O=c1[nH]c(-c2cc(Br)c(O)cn2)nc2c(Br)cccc12` [Compound 1007A] are 327 nM and 380 nM.
For the compound `COc1cc(-c2cc(=O)c3cc(Br)c(OC)c(Br)c3o2)ncc1O` [Compound 1040A], the results for the IC50 at CK2A2 (Table 5) and on CK2A1 (Table 5) were 29 nM and 52 nM, respectively.
Turning to `COc1nc(-c2cc(=O)c3cc(Br)c(OC)c(Br)c3o2)ccc1O` [Compound 1041A], the results for the IC50 on CK2A2 (Table 5) and at CK2A1 (Table 5) were 1740 nM and 1890 nM, respectively.
The corresponding values for `COc1cc2oc(-c3ccc(O)c(OC)n3)cc(=O)c2cc1Br` [Compound 1058A] are 1180 nM and 2730 nM.
Turning to `COc1ccc2c(=O)cc(-c3ccc(O)c(OC)n3)oc2c1Br` [Compound 1059A], the IC50 at CK2A2 (Table 5) stood at 251 nM; on CK2A1 (Table 5), 185 nM.
The corresponding values for `COc1cc(-c2cc(=O)c3cc(Br)c(OC)cc3o2)ncc1O` [Compound 1063B] are 445 nM and 203 nM.
In the case of `COc1nc(-c2cc(=O)c3cc(Br)ccc3o2)ccc1O` [Compound 1064A], the IC50 on CK2A2 (Table 5) stood at 167 nM; at CK2A1 (Table 5), 124 nM.
For `COc1cc(-c2cc(=O)c3cc(Br)ccc3o2)ncc1O` [Compound 1065A], the IC50 was determined as 364 nM at CK2A2 (Table 5) and 401 nM on CK2A1 (Table 5).
As for `O=c1cc(-c2cc(Br)c(O)cn2)[nH]c2c(Br)cc(Br)cc12` [Compound 1066A], the IC50 at CK2A2 (Table 7) was determined as 1290 nM; on CK2A1 (Table 7) it was 2700 nM.
As for `COc1cc(-c2cc(=O)c3cc(Br)cc(Br)c3[nH]2)ncc1O` [Compound 1077A], the IC50 on CK2A2 (Table 7) and on CK2A1 (Table 7) was over 5000 nM each time.
As for `O=c1cc(-c2ccc(O)c(C(F)(F)F)c2)[nH]c2c(Br)cc(Br)cc12` [Compound 1095B], the IC50 at CK2A2 (Table 7) stood at 699 nM; at CK2A1 (Table 7), 488 nM.
Consider `O=c1cc(-c2ccc(O)c(Cl)c2)[nH]c2c(Br)cc(Br)cc12` [Compound 1103A], for which the IC50 on CK2A2 (Table 7) turned out to be 71 nM; at CK2A1 (Table 7) it was 141 nM.
As for `O=C1/C(=C/c2ccc(O)c(C3CC3)c2)Oc2c(Br)cc(Br)cc21` [Compound 1131A], the IC50 at CK2A2 (Table 12) and at CK2A1 (Table 12) was over 5000 nM throughout.
Consider `O=c1cc(-c2ccc(O)c(C3CC3)c2)oc2c(Br)cc(Br)cc12` [Compound 1132A], for which the IC50 at CK2A2 (Table 5) and at CK2A1 (Table 5) was over 5000 nM in each case.
`COc1c(Br)cc2c(c1Br)O/C(=C\c1ccc(O)c(C3CC3)c1)C2=O` [Compound 1134A]: the IC50 at CK2A2 (Table 12) and on CK2A1 (Table 12) was over 5000 nM in each case.
Regarding `COc1ccc2c(c1Br)O/C(=C\c1ccc(O)c(C3CC3)c1)C2=O` [Compound 1135B], the IC50 on CK2A2 (Table 12) and on CK2A1 (Table 12) was over 5000 nM each time.
Regarding `COc1c(Br)cc2c(=O)cc(-c3ccc(O)c(C4CC4)c3)oc2c1Br` [Compound 1140A], the IC50 at CK2A2 (Table 5) and at CK2A1 (Table 5) was over 5000 nM throughout.
Take `O=c1cc(-c2ccc(O)c(C3CC3)c2)oc2c(Br)cccc12` [Compound 1141A]: the IC50 is 4250 nM on CK2A2 (Table 5) and over 5000 nM at CK2A1 (Table 5).
For `COc1ccc2c(=O)cc(-c3ccc(O)c(C4CC4)c3)oc2c1Br` [Compound 1142A], in that order: 2230 nM and 2790 nM.
In the case of `O=C1/C(=C/c2ccc(O)cn2)Oc2c(Br)cc(Br)cc21` [Compound 1143A], the IC50 at CK2A2 (Table 12) and on CK2A1 (Table 12) was over 5000 nM in each case.
Consider `COc1nc(/C=C2\Oc3c(Br)cc(Br)cc3C2=O)ccc1O` [Compound 1150A], for which the IC50 on CK2A2 (Table 12) worked out at 109 nM; on CK2A1 (Table 12), 178 nM.
The corresponding values for `COc1nc(/C=C2\Oc3c(cc(Br)c(OC)c3Br)C2=O)ccc1O` [Compound 1159A] are 590 nM and 1020 nM.
In the case of `COc1cc(/C=C2\Oc3c(Br)cc(Br)cc3C2=O)ncc1O` [Compound 1163A], the values for the IC50 at CK2A2 (Table 12) and on CK2A1 (Table 12) were 403 nM and 45 nM, respectively.
The corresponding values for `COc1cc(/C=C2\Oc3c(cc(Br)c(OC)c3Br)C2=O)ncc1O` [Compound 1164A] are 331 nM and 120 nM.
For `O=C1/C(=C/c2cc(Br)c(O)cn2)Oc2c(Br)cc(Br)cc21` [Compound 1173A], in that order: 30 nM and 60 nM.
With `COc1c(Br)cc2c(c1Br)O/C(=C\c1cc(Br)c(O)cn1)C2=O` [Compound 1174A], the IC50 is 27 nM at CK2A2 (Table 12) and 86 nM on CK2A1 (Table 12).
The corresponding values for `COc1ccc2c(c1Br)O/C(=C\c1ccc(O)c(OC)n1)C2=O` [Compound 1188A] are 144 nM and 465 nM.
`COc1cc(/C=C2\Oc3c(ccc(OC)c3Br)C2=O)ncc1O` [Compound 1189A]: the IC50 is 149 nM at CK2A2 (Table 12) and 117 nM on CK2A1 (Table 12).
The corresponding values for `COc1ccc2c(c1Br)O/C(=C\c1cc(Br)c(O)cn1)C2=O` [Compound 1190B] are 46 nM and 184 nM.
For `O=C(O)c1ccc(/C=C2\Oc3c(Br)cccc3C2=O)cc1` [Compound 1210A], in that order: 60 nM and 703 nM.
The corresponding values for `C#Cc1cc(-c2cc(=O)c3cc(Br)c(OC)c(Br)c3o2)ccc1O` [Compound 1212A] are 1260 nM and over 5000 nM.
In the case of `O=C1/C(=C/c2ccc(O)c(C3CC3)c2)Oc2c(Br)cccc21` [Compound 1220A], the IC50 on CK2A2 (Table 12) was over 5000 nM; on CK2A1 (Table 12), 4450 nM.
As for `C#Cc1cc(/C=C2\Oc3c(Br)cc(Br)cc3C2=O)ccc1O` [Compound 1224A], the IC50 at CK2A2 (Table 12) worked out at 77 nM; on CK2A1 (Table 12), 177 nM.
The corresponding values for `COc1nc(/C=C2\Oc3c(Br)cccc3C2=O)ccc1O` [Compound 1226A] are 91 nM and 131 nM.
For `C#Cc1cc(/C=C2\Oc3c(cc(Br)c(OC)c3Br)C2=O)ccc1O` [Compound 1229A], in that order: 49 nM and 151 nM.
For the compound `C#Cc1cc(/C=C2\Oc3c(ccc(OC)c3Br)C2=O)ccc1O` [Compound 1231A], the IC50 at CK2A2 (Table 12) is 206 nM; at CK2A1 (Table 12), 180 nM.
On to `COc1cc(/C=C2\Oc3c(Br)cccc3C2=O)ncc1O` [Compound 1236B], for which the IC50 came to 141 nM at CK2A2 (Table 12) and 172 nM at CK2A1 (Table 12).
For `O=C1/C(=C/c2cc(Br)c(O)cn2)Oc2c(Br)cccc21` [Compound 1237A], in that order: 57 nM and 67 nM.
As to `Cn1c(-c2ccc(O)c(Br)c2)nc2c(Br)cccc2c1=O` [JKT.866A], the IC50 at CK2A2 (Table 8, quinazolinones) is over 5000 nM; at CK2A1 (Table 8, quinazolinones), 4590 nM.
`Cn1c(-c2ccc(O)c(Cl)c2)nc2c(Br)cccc2c1=O` [JKT.870A]: the IC50 was over 5000 nM at CK2A2 (Table 8, quinazolinones) and over 5000 nM on CK2A1 (Table 8, quinazolinones).
Take `Cn1c(-c2cc(F)c(O)c(F)c2)nc2c(Br)cccc2c1=O` [JKT.873A]: the IC50 was found to be 649 nM on CK2A2 (Table 8, quinazolinones) and 566 nM at CK2A1 (Table 8, quinazolinones).
As to `Cn1c(-c2ccc(O)c(C(F)(F)F)c2)nc2c(Br)cc(Br)cc2c1=O` [JKT.874D], the IC50 on CK2A2 (Table 8, quinazolinones) was over 5000 nM; on CK2A1 (Table 8, quinazolinones), over 5000 nM.
For the compound `Cn1c(-c2ccc(O)c(C(F)(F)F)c2)nc2c(Br)cccc2c1=O` [JKT.875A], the IC50 at CK2A2 (Table 8, quinazolinones) was over 5000 nM; on CK2A1 (Table 8, quinazolinones) it was over 5000 nM.
As for `COc1cc(-c2nc3c(Br)cc(Br)cc3c(=O)n2C)ccc1O` [JKT.876A], the IC50 at CK2A2 (Table 8, quinazolinones) is over 5000 nM; on CK2A1 (Table 8, quinazolinones) it was over 5000 nM.
For `COc1cc(-c2nc3c(Br)cccc3c(=O)n2C)ccc1O` [JKT.877A], the IC50 at CK2A2 (Table 8, quinazolinones) is over 5000 nM; at CK2A1 (Table 8, quinazolinones), over 5000 nM.
Turning to `O=c1[nH]c(-c2ccc(O)c(Br)c2)nc2c(Br)nc(Br)cc12` [JKT.880B], the IC50 on CK2A2 (Table 8, quinazolinones) came to 242 nM; at CK2A1 (Table 8, quinazolinones) it was 95 nM.
On to `O=c1cc(-c2ccc(O)c(Br)c2)oc2c(Br)nc(Br)cc12` [JKT.909A], for which the IC50 at CK2A2 (Table 4) and on CK2A1 (Table 4) was 6 nM throughout.
Consider `O=c1cc(-c2cc(Br)c(O)cn2)oc2c(Br)cc(Br)cc12` [JKT.923A], for which the half-maximal inhibitory concentration (IC50) at CK2A2 (Table 4) is 8 nM; on CK2A1 (Table 4), 11 nM.
`O=c1[nH]c(-c2cc(Br)c(O)cn2)nc2c(Br)cc(Br)cc12` [JKT.932F]: the IC50 on CK2A2 (Table 8, quinazolinones) stood at 99 nM; at CK2A1 (Table 8, quinazolinones), 107 nM.
In the case of `O=c1cc(-c2ccc(O)c(Br)c2)[nH]c2c(Br)cc(Br)cc12` [JKT.944A], the IC50 on CK2A2 (Table 6, quinolinones) turned out to be 123 nM; at CK2A1 (Table 6, quinolinones), 128 nM.
On to `O=c1[nH]c(-c2ccc(O)c(Cl)n2)nc2c(Br)cc(Br)cc12` [JKT.956A], for which the IC50 on CK2A2 (Table 8, quinazolinones) was 105 nM; on CK2A1 (Table 8, quinazolinones), 132 nM.
The corresponding values for `COc1nc(-c2nc3c(Br)cc(Br)cc3c(=O)[nH]2)ccc1O` [JKT.968C] are 33 nM and 27 nM.

These data come from patent publication US20260199350A1, “FLAVONES, QUINOLINONES, QUINAZOLINONES, AND AURONES, AND USES IN CK2-MEDIATED DISEASES” (Salk Institute for Biological Studies, priority 2022, published 2026).
